Values joined by “and” are separate entries in the source; they are usually repeats but may differ in a detail not shown here. Equal values may be shown once. Toxic doses and inconclusive results are not listed.

The assay concerns P388 leukemia ip, CD2F1 mice, survival T/C. Put plainly: NCI In Vivo Anticancer Drug Screen. Data for tumor model P388 Leukemia (intraperitoneal) in CD2F1 (CDF1) mice. The note with it: endpoint: median survival time, higher = longer survival. The procedure, abridged: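 Mice carrying the transplanted tumor received test compound or vehicle. Survival was recorded in each group, and the value is the treated-group measurement divided by that of the vehicle-treated control group.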

Where [1] appears, read: dose: 15.0 mg/kg/injection, schedule: Q01DX005 (ip), vehicle: saline with Tween-80.
Where [2] appears, read: dose: 50.0 mg/kg/injection, schedule: Q01DX005 (ip), vehicle: saline with Tween-80.
The mark [3] stands for this setting: dose: 100.0 mg/kg/injection, schedule: Q01DX005 (ip), vehicle: saline with Tween-80.
Where [4] appears, read: dose: 200.0 mg/kg/injection, schedule: Q01DX005 (ip), vehicle: saline with Tween-80.
Where [5] appears, read: dose: 60.0 mg/kg/injection, schedule: Q01DX005 (ip), vehicle: saline with Tween-80.
The mark [6] stands for this setting: dose: 100.0 mg/kg/injection, schedule: Q04DX002 (ip), vehicle: saline with Tween-80.
Setting [7] is: dose: 200.0 mg/kg/injection, schedule: Q04DX002 (ip), vehicle: saline with Tween-80.
Where [8] appears, read: dose: 400.0 mg/kg/injection, schedule: Q04DX002 (ip), vehicle: saline with Tween-80.
Setting [9] is: dose: 50.0 mg/kg/injection, schedule: Q01DX005 (ip), vehicle: Klucel (hydroxypropylcellulose) (HPC).
[10] abbreviates: dose: 100.0 mg/kg/injection, schedule: Q01DX005 (ip), vehicle: Klucel (hydroxypropylcellulose) (HPC).
The mark [11] stands for this setting: dose: 200.0 mg/kg/injection, schedule: Q01DX005 (ip), vehicle: Klucel (hydroxypropylcellulose) (HPC).
Where [12] appears, read: dose: 120.0 mg/kg/injection, schedule: Q01DX005 (ip), vehicle: saline with Tween-80.
Setting [13] is: dose: 240.0 mg/kg/injection, schedule: Q01DX005 (ip), vehicle: saline with Tween-80.
Setting [14] is: dose: 50.0 mg/kg/injection, schedule: Q01DX009 (ip), vehicle: saline with Tween-80.
[15] abbreviates: dose: 100.0 mg/kg/injection, schedule: Q01DX009 (ip), vehicle: saline with Tween-80.
[16] abbreviates: dose: 200.0 mg/kg/injection, schedule: Q01DX009 (ip), vehicle: saline with Tween-80.
Where [17] appears, read: dose: 100.0 mg/kg/injection, schedule: Q04DX003 (ip), vehicle: saline with Tween-80.
Setting [18] is: dose: 200.0 mg/kg/injection, schedule: Q04DX003 (ip), vehicle: saline with Tween-80.

For `Cc1cc(C)nc(NS(=O)(=O)c2ccc(Nc3c4ccccc4nc4c([N+](=O)[O-])cccc34)cc2)n1`, the T/C reads like this: (dose: 3.75 mg/kg/injection, schedule: Q01DX005 (ip), vehicle: saline with Tween-80) 100 % of control; (dose: 7.5 mg/kg/injection, schedule: Q01DX005 (ip), vehicle: saline with Tween-80) 100 % of control; under setting [1], 97 % of control.

In the case of `C[C@@H]1CC[C@@]2(OC1)O[C@H]1C[C@H]3[C@@H]4CC=C5C=CCC[C@]5(C)[C@H]4CC[C@]3(C)[C@H]1[C@@H]2C`, the T/C was 100 % of control (dose: 2.25 mg/kg/injection, schedule: Q01DX005 (ip), vehicle: Klucel (hydroxypropylcellulose) (HPC)); 100 % of control (dose: 4.5 mg/kg/injection, schedule: Q01DX005 (ip), vehicle: Klucel (hydroxypropylcellulose) (HPC)); 105 % of control (dose: 9.0 mg/kg/injection, schedule: Q01DX005 (ip), vehicle: Klucel (hydroxypropylcellulose) (HPC)); 100 % of control (dose: 18.0 mg/kg/injection, schedule: Q01DX005 (ip), vehicle: Klucel (hydroxypropylcellulose) (HPC)); 98 % of control (dose: 36.0 mg/kg/injection, schedule: Q01DX005 (ip), vehicle: Klucel (hydroxypropylcellulose) (HPC)).

`COc1cc2c(cc1OC)CN1CCc3cc(OC)c(OC)cc3C1C2` (configuration not stated): the T/C runs as follows: under setting [2], 99 % of control; under setting [3], 94 % of control; under setting [4], 91 % of control.

As for `Cc1cc2nc(CC(=O)c3ccc4ccccc4c3)c(=O)[nH]c2cc1C`, the T/C is, setting by setting: under setting [1], 91 % of control; (dose: 30.0 mg/kg/injection, schedule: Q01DX005 (ip), vehicle: saline with Tween-80) 91 % of control; under setting [5], 90 % of control.

`CCCCCCCCCCCC(=O)OCCN(C=O)C[n+]1ccccc1`: the T/C reads like this: (dose: 25.0 mg/kg/injection, schedule: Q04DX002 (ip), vehicle: saline) 98 % of control; (dose: 50.0 mg/kg/injection, schedule: Q04DX002 (ip), vehicle: saline) 96 % of control; (dose: 100.0 mg/kg/injection, schedule: Q04DX002 (ip), vehicle: saline) 91 % of control.

As to `CCOc1cccc(/C=N/N=C2\C(=O)Nc3c(Cl)cc(Cl)cc32)c1O`, the T/C is 89 % of control under setting [2], 92 % of control under setting [3] and 91 % of control under setting [4].

On to `OC1CC2CCCCC2CC1c1ccccc1` (configuration not stated), for which the T/C (dose: 50.0 mg/kg/injection, schedule: Q04DX002 (ip), vehicle: saline with Tween-80) was 100 % of control and 92 % of control; the T/C under setting [6] was 111 % of control and 92 % of control; the T/C under setting [7] was 92 % of control and 97 % of control; the T/C under setting [8] is 116 % of control.

Regarding `C/C=C1/C[N+]2(C)CCC34c5ccccc5NC32C(O)CC1C4(CO)C(=O)OC` (configuration not stated), the T/C is 109 % of control (dose: 2.0 mg/kg/injection, schedule: Q01DX009 (ip), vehicle: saline); 106 % of control (dose: 4.0 mg/kg/injection, schedule: Q01DX009 (ip), vehicle: saline); 100 % of control (dose: 8.0 mg/kg/injection, schedule: Q01DX009 (ip), vehicle: saline); 106 % of control (dose: 16.0 mg/kg/injection, schedule: Q01DX009 (ip), vehicle: saline).

For `O=C1CSC(c2ccccn2)N1CCN1C(=O)CSC1c1ccccn1` (configuration not stated), the T/C runs as follows: under setting [9], 94 % of control; under setting [10], 96 % of control; under setting [6], 97 % of control; under setting [11], 97 % of control; under setting [7], 102 % of control; under setting [8], 93 % of control.

Turning to `CCC1(C)C(=O)C(C)(CC)C1=O` (configuration not stated), the T/C by setting is: under setting [5], 105 % of control; under setting [12], 107 % of control; under setting [13], 116 % of control.

In the case of `O=C(Nc1ccc(F)cc1)N1c2ccccc2SC12CCCC2`, the T/C reads like this: under setting [14], 91 % of control; under setting [15], 93 % of control; under setting [16], 93 % of control.

Turning to `Ic1ncnc2c1ncn2C1CCCCO1` (configuration not stated), the T/C reads like this: under setting [15], 95 % of control; (dose: 100.0 mg/kg/injection, schedule: Q01DX009 (ip), vehicle: saline) 95 % of control; under setting [17], 100 % of control; under setting [16], 100 % of control; (dose: 200.0 mg/kg/injection, schedule: Q01DX009 (ip), vehicle: saline) 104 % of control; under setting [18], 91 % of control. The T/C (dose: 400.0 mg/kg/injection, schedule: Q01DX009 (ip), vehicle: saline with Tween-80) is 90 % of control and the T/C (dose: 400.0 mg/kg/injection, schedule: Q04DX003 (ip), vehicle: saline with Tween-80) was 95 % of control.

As for `C=C(c1ccc(N(CC)CC)cc1)c1ccc(N(CC)CC)cc1`, the T/C was 95 % of control under setting [2], 103 % of control under setting [3] and 90 % of control under setting [4].

As for `Cc1ccc(C)c2c1C(=O)c1ccccc1C2(O)C#Cc1ccccc1` (configuration not stated), the T/C was 101 % of control under setting [9], 94 % of control under setting [10] and 94 % of control under setting [11].

Take `CC12C=C3CC(OC(=O)c4ccccc4)CCC3(O1)c1ccccc12` (configuration not stated): the T/C was 99 % of control (dose: 25.0 mg/kg/injection, schedule: Q01DX009 (ip), vehicle: saline with Tween-80); 105 % of control under setting [14]; 95 % of control under setting [15].

For `COc1ccc(OC)c(N(CCN2C(=O)c3ccccc3C2=O)C(=O)C2CCC(=O)C2C)c1` (configuration not stated), the T/C under setting [5] was 99 % of control and the T/C under setting [12] was 87 % of control.

In the case of `CCCCOc1ccc(OCc2ccc(C)cc2)cc1`, the T/C is 114 % of control under setting [14], 114 % of control under setting [15] and 91 % of control under setting [16].

Regarding `COc1cc([N+](=O)[O-])c(OC)cc1Nc1ccccc1C(=O)O`, the T/C was 89 % of control (dose: 60.0 mg/kg/injection, schedule: Q01DX005 (ip), vehicle: Klucel + Tween-80) and 90 % of control (dose: 120.0 mg/kg/injection, schedule: Q01DX005 (ip), vehicle: Klucel + Tween-80).

With `O=c1[nH]c2ccccc2cc1CBr`, the T/C is, setting by setting: (dose: 50.0 mg/kg/injection, schedule: Q04DX002 (ip), vehicle: Klucel (hydroxypropylcellulose) (HPC)) 95 % of control; (dose: 100.0 mg/kg/injection, schedule: Q04DX002 (ip), vehicle: Klucel (hydroxypropylcellulose) (HPC)) 102 % of control and 104 % of control; (dose: 400.0 mg/kg/injection, schedule: Q04DX002 (ip), vehicle: Klucel (hydroxypropylcellulose) (HPC)) 96 % of control.

Take `CC[C@@H]1CN2CCc3c([nH]c4ccccc34)[C@@](C(=O)OC)(c3cc4c(cc3OC)N(C)[C@H]3[C@@](O)(C(=O)OC)[C@H](OC(C)=O)[C@]5(CC)C=CCN6CC[C@]43[C@@H]65)C[C@H](C2)[C@H]1O`: the T/C is 115 % of control (dose: 1.0 mg/kg/injection, schedule: Q01DX001 (ip), vehicle: water); 115 % of control (dose: 2.0 mg/kg/injection, schedule: Q01DX001 (ip), vehicle: water); 117 % of control and 118 % of control (dose: 4.0 mg/kg/injection, schedule: Q01DX001 (ip), vehicle: water); 174 % of control (dose: 32.0 mg/kg/injection, schedule: Q01DX001 (ip), vehicle: water); 150 % of control and 174 % of control (dose: 64.0 mg/kg/injection, schedule: Q01DX001 (ip), vehicle: water).

`Nc1ccc(Cn2ccnn2)cc1`: the T/C by setting is: under setting [5], 100 % of control; under setting [12], 95 % of control; under setting [13], 101 % of control.

As for `Nc1cc(N2C(=O)c3ccccc3C2=O)ccc1Cl`, the T/C reads like this: under setting [2], 109 % of control; under setting [3], 109 % of control; under setting [4], 100 % of control.

Consider `NC(=S)NC1OC(COC(=O)c2ccccc2)C(OC(=O)c2ccccc2)C1OC(=O)c1ccccc1` (configuration not stated), for which the T/C runs as follows: (dose: 25.0 mg/kg/injection, schedule: Q04DX003 (ip), vehicle: saline with Tween-80) 98 % of control; (dose: 50.0 mg/kg/injection, schedule: Q04DX003 (ip), vehicle: saline with Tween-80) 107 % of control; under setting [17], 100 % of control; under setting [18], 106 % of control.

(Values after PubChem BioAssay AID330 (DTP/NCI, 2004).)
